Reference: US20150240295A1, “REACTIVE, LIPOPHILIC NUCLEOSIDE BUILDING BLOCKS FOR THE SYNTHESIS OF HYDROPHOBIC NUCLEIC ACIDS” (IONOVATION GMBH, priority 2012, published 2015)

What was measured:
OVCAR-5 = experiment: Oncological test, cell growth against OVCAR-5; format: cell-based, human; conditions: FIGS. 10 and 11
Excerpt: (§1) FIGS. 10 to 17 show the activity of compounds ESP—2.2, ESP—2.5 and ESP—31 according to the invention as well as the comparative examples ESP—2 and ESP—3 (Table 4) in relation to the concentration employed against various different cancer cells. […] The x-axis depicts the molar concentration of the respective compound on a logarithmical scale.

IGR-OV1 = experiment: Oncological test, cell growth against IGR-OV1; format: cell-based, human; conditions: FIGS. 12 and 13
Excerpt: as §1

HCT-15 cells = experiment: Oncological test, cell growth against HCT-15; format: cell-based, human; conditions: for cell growth (inhibition / cytotoxic effect): FIGS. 14 and 15
Excerpt: as §1

786-0 cells = experiment: Oncological test, cell growth against 786-0; format: cell-based; conditions: FIGS. 16 and 17
Excerpt: as §1

various cancer cells = experiment: Oncological tests, summary of FIGS. 10 to 17; format: cell-based; conditions: ovarian, colon and kidney cancer cells
Excerpt: as §1

CCOC(=O)CC[C@@]1(C)OC2C(O1)[C@@H](COC(c1ccccc1)(c1ccccc1)c1ccc(OC)cc1)O[C@H]2n1ncc(=O)[nH]c1=O (stereo partly drawn) [ESP—2.2]
cell growth (inhibition / cytotoxic effect) (OVCAR-5): inhibition of cell growth | cell growth (inhibition / cytotoxic effect) (IGR-OV1): activity of the compound could be increased | cell growth (inhibition / cytotoxic effect) (HCT-15 cells): increased activity

CCCCCCCCCC1(CCCCCCCCC)OC2[C@@H](CO)O[C@@H](n3ccc(=O)[nH]c3=O)[C@H]2O1 (stereo partly drawn) [ESP—31]
cell growth (inhibition / cytotoxic effect) (OVCAR-5): cytotoxicity | cell growth (inhibition / cytotoxic effect) (IGR-OV1): vast improvement with respect to the cytotoxic activity | cell growth (inhibition / cytotoxic effect) (HCT-15 cells): high cytotoxic activity | cell growth (inhibition / cytotoxic effect) (786-0 cells): cytotoxic effect

COc1ccc(C(OC[C@H]2O[C@@H](n3cnc4c(=O)n(C/C=C(\C)CCC=C(C)C)cnc43)C[C@@H]2O)(c2ccccc2)c2ccc(OC)cc2)cc1 [Compound 4a, 9-((2R,4S,5R)-5-((Bis(4-methoxyphenyl)(phenyl)methoxy)-methyl)-4-hydroxytetrahydrofuran-2-yl)-1-((E)-3,7-di-methylocta-2,6-dienyl)-1H-purin-6(9H)-one]
melting point: 74 °C

COc1ccc(C(OC[C@H]2O[C@@H](n3cnc4c(=O)n(C/C=C(\C)CC/C=C(\C)CCC=C(C)C)cnc43)C[C@@H]2O)(c2ccccc2)c2ccc(OC)cc2)cc1 [Compound 4b, 9-((2R,4S,5R)-5-((Bis(4-methoxyphenyl)(phenyl)methoxy)-methyl)-4-hydroxytetrahydrofuran-2-yl)-1-((2E,6E)-3,7,11-trimethyldodeca-2,6,10-trienyl)-1H-purin-6(9H)-on]
melting point: 68 °C

CCCCCCCCCCCCCCCC1(CCCCCCCCCCCCCCC)OC2C(CO)OC(n3ccc(=O)[nH]c3=O)C2O1 (stereo not drawn) [Compound 25d, 1-(6-Hydroxymethyl-2,2-dipentadecyl-tetrahydro-furo[3,4-d][1,3]dioxol-4-yl)-1H-pyrimidin-2,4-dione]
melting point: 93 °C

CCOC(=O)CC[C@]1(C)OC2[C@@H](CO)O[C@@H](n3ncc(=O)n(C/C=C(\C)CCC=C(C)CCC=C(C)C)c3=O)[C@H]2O1 (stereo partly drawn) [ESP—2.5]
cell growth (inhibition / cytotoxic effect) (OVCAR-5): high cytotoxicity | cell growth (inhibition / cytotoxic effect) (IGR-OV1): improved inhibition effect | cell growth (inhibition / cytotoxic effect) (HCT-15 cells): increased activity | death of the cells (HCT-15 cells; high dosage): over 50% | cell growth (inhibition / cytotoxic effect) (786-0 cells): high cytotoxic effect | activity / cytotoxicity against various cancer cells (various cancer cells): particular high cytotoxicity

CCCCCCCCCCCCCC1(CCCCCCCCCCCCC)O[C@@H]2[C@H](O1)[C@@H](CO)O[C@H]2n1ccc(=O)[nH]c1=O [Compound 25c, 1-((3aR,4R,6R,6aR)-6-(hydroxymethyl)-2,2-ditridecyltetrahydrofuro[3,4-d][1,3]dioxol-4-yl)pyrimidin-2,4(1H,3H)-dione]
melting point: 90.1 °C

O=c1cnn([C@@H]2O[C@H](CO)[C@@H](O)[C@H]2O)c(=O)[nH]1 [ESP—2, 6-azauridine, reference compound]
cell growth (inhibition / cytotoxic effect) (OVCAR-5): no activity | cell growth (inhibition / cytotoxic effect) (IGR-OV1): slight inhibition | cell growth (inhibition / cytotoxic effect) (HCT-15 cells): slight inhibition of the growth of the cells

O=c1ccn([C@@H]2O[C@H](CO)[C@@H](O)[C@H]2O)c(=O)[nH]1 [ESP—3, uridine, reference compound]
cell growth (inhibition / cytotoxic effect) (OVCAR-5): no activity | cell growth (inhibition / cytotoxic effect) (IGR-OV1): did not even cause a growth inhibition | cell growth (inhibition / cytotoxic effect) (786-0 cells): did not show any activity at all

CCCCCCCCCCCCCCCCCC1(CCCCCCCCCCCCCCCCC)OC2C(CO)OC(n3ccc(=O)[nH]c3=O)C2O1 (stereo not drawn) [Compound 25e, 1-(2,2-Diheptadecyl-6-hydroxymethyl-tetrahydro-furo[3,4-d][1,3]dioxol-4-yl)-1H-pyrimidin-2,4-dione]
melting point: 89.7 °C
